Source: patent US20230136562A1, “SPIROUREA DERIVATIVES” (Idorsia Pharmaceuticals Ltd, priority 2020, published 2023)

Experiments:
Wistar rats = assay: Amygdala-kindling rat model; assay type: in vivo; settings: formulation 90% MC 0.5% + 10% PEG400
Experimental: (§1) Formulation and Administration.
(§2) Compounds were formulated in a 10% polyethylene glycol 400 (PEG 400)/90% aqueous solution of 0.5% methylcellulose (MC 0.5%). Firstly drugs are dissolved in PEG 400 and then suspended in MC 0.5% for oral gavage at X mg/5 mL/kg (X see table).
Amygdala-Kindling Rat Model:
1. Procedure: Adult male Wistar rats (Harlan Laboratories, Netherlands, or Charles Rivers, Germany; body weight 300-350 g) were stereotaxically implanted with twisted bipolar plastic-coated stainless steel electrode (MS333-2-BIU 10 mm, Plastics One) into the right basolateral amygdala under isoflurane anesthesia. To place the electrode, trepanations were made in the skull and the electrode was lowered into the right basolateral amygdala (from bregma: anteriorposterior (AP): −2.5 mm, medio-lateral (ML): −3.5 mm, dorso-ventral (DV): −8.6 mm; α=10°) and secured to the skull with screws and dental acrylate. After one week of recovery, they were handled daily and habituated over one week to the kindling set-up. Kindling procedure: For a kindling session each rat was placed individually into a smooth acrylic plastic, round-bottomed bowl (Ø 36 cm, height 36 cm, BASi movement-responsive caging system) and its intracranial implanted electrode was connected to the stimulator (STG4008, Multichannel Systems GmbH) and the recording devices (PowerLab 8/35, ADInstruments Ltd) via a cable (335-340/3 (C), Plastics One). For the kindling procedure, each rat was exposed once daily to an electrical stimulation and the behavioral symptoms of the evoked seizure were observed and classified according to the modified Racine scale (stage 0, arrest, wet dog shakes, normal behaviour; stage 1, facial twitches: nose, lips, eyes; stage 2, chewing, head nodding; stage 3, forelimb clonus; stage 4, rearing, falling on forelimbs; stage 5, rearing, falling on side or back, rolling). The electrical stimulus consists of a 1s-train of 50 Hz square-wave biphasic pulses of 1-ms duration at an intensity of 400 μA (suprathreshold intensity). […] Data Scoring and analysis. The duration of electroencephalographic seizures (afterdischarge, AD) was recorded using LabChart7 Pro software (ADlnstruments Ltd). Simultaneously, videos were recorded to evaluate seizure stage (SS).
2. Compound testing: Acute drug effects were evaluated in groups of 6-8 fully kindled rats in a randomized cross-over design with 48 h between drug and vehicle applications. Following oral administration of drug or vehicle, drug testing included determination of the afterdischarge threshold (the minimal stimulation intensity necessary to evoke an afterdischarge (electroencephalographically measured neuronal hyper-synchronous activity with an amplitude 2-times higher than baseline amplitude and a frequency of ≥1 Hz) of at least 3 sec duration) and monitoring electroencephalographic and behavioral correlates of the evoked seizure at ADT (afterdischarge threshold), including AD duration and SS, by a experimenter blind to treatment assignment.

DBA/2J mice = assay: Audiogenic seizure-sensitive mouse model of generalized convulsive seizures (AGS); assay type: in vivo; settings: challenge 1 h, 90% MC 0.5% + 10% PEG400, read-out: Seizure stage [% vs. vehicle]
Experimental: as §1, §2
Audiogenic Seizure-Sensitive Mouse Model of Generalized Convulsive Seizures
1. Procedure: Following two days of acclimatisation, auditory seizures are induced in male juvenile DBA/2J mice (22-24 days old). Each mouse is placed individually in the exposure chamber, an hemispheric acrylic glass dome (diameter: 50 cm) within a sound-attenuated box. The sound-attenuated box is equipped with two house lights and a camera system (Fire-I from Unibrain) in order to observe and record the behavioral seizure response. After 60 seconds of habituation, the stimulus, a mixed frequency tone of 15-20 kHz at 110 dB (SASLab Lite, Avisoft Bioacoustics), is played from a speaker that is placed on the top center of the dome. […] Seizures are classified as following: stage 0, normal behavior; stage 1, wild running; stage 2, generalized clonus; stage 3, tonic extension of the hind limbs.
2. Compounds testing: Acute compound effects on audiogenic generalized convulsive seizures are evaluated in independent groups of 8-10 mice randomly assigned. Following oral administration of compound or vehicle, the maximum seizure stage during sound exposure is assessed. Compounds are given 1 hour before exposure to the stimulus. Each mouse is exposed to the auditory stimulus only once and euthanized afterwards by CO2 inhalation.

[1] = 10 mg/kg po, time of challenge 15 min
[2] = 100 mg/kg po, time of challenge 1 h
[3] = 30 mg/kg po, time of challenge 1 h

O=C(NC1CC2(CC2)C1)N[C@@H](CO)c1cccc(C(F)(F)F)c1 (single isomer, unassigned) [Example 186]
AD duration [% vs veh] (Wistar rats; [1]): −87 % vs veh
Seizure stage [% vs veh] (Wistar rats; [1]): −50 % vs veh
change in vivo at 5 mg/kg (DBA/2J mice; 5 mg/kg po): -67%

O=C(NCc1cccc(C(F)(F)F)c1)NC1CC2(CC2)C1 [Example 2, 1-Spiro[2.3]hex-5-yl-3-(3-trifluoromethyl-benzyl)-urea]
AD duration [% vs veh] (Wistar rats; [2]): −93 % vs veh
Seizure stage [% vs veh] (Wistar rats; [2]): −88 % vs veh
change in vivo at 30 mg/kg (DBA/2J mice; 30 mg/kg po): -95%

O=C(NCc1cc(OCC(F)(F)F)ncn1)NC1CC2(CCC2)C1 [Example 59, 1-Spiro[3.3]hept-2-yl-3-[6-(2,2,2-trifluoro-ethoxy)-pyrimidin-4-ylmethyl]-urea]
AD duration [% vs veh] (Wistar rats; [3]): −96 % vs veh
Seizure stage [% vs veh] (Wistar rats; [3]): −83 % vs veh
change in vivo at 10 mg/kg (DBA/2J mice; 10 mg/kg po): -70%
